The values that follow come from ChEMBL document CHEMBL4425167, “Screening Identifies Thimerosal as a Selective Inhibitor of Endoplasmic Reticulum Aminopeptidase 1” (ACS Med Chem Lett, 2016).

Test [1] deals with T1, Endoplasmic reticulum aminopeptidase 1 (Homo sapiens, UniProt Q9NZ08). Nature of the test: Inhibition of human ERAP1 expressed in African green monkey COS7 cells using aminoacyl-4-methylcoumaryl-7-amide as substrate after 15 mins by spectrofluorophotometric method.
The target in test [2] is T1, Endoplasmic reticulum aminopeptidase 1. Kind of test: Inhibition of recombinant ERAP1 (unknown origin) expressed in baculovirus infected Hi5 cells using L-leucine 7-amido-4-methyl coumarin as substrate up to 30 uM by fluorescence microplate reader method.
For test [3], the system named is BMDC. Kind of test: Inhibition of ovalbumin cross presentation to OT-I Rag1-/-mouse CD8+ T cells in C57Bl/6 JRj mouse ERAP-/- BMDC assessed as increase in IL-2 secretion from CD8+ T cells at 0.01 to 10 uM preincubated for 90 mins followed by 3 to 18 hrs incubation in presence of ovalbumin by sandwich ELISA method. The class given is functional, cell-based. On the technique in general: An ELISA detects its analyte on a solid surface through an enzyme-linked reagent.

The subject of test [4] is BMDC. Kind of test: Inhibition of ovalbumin cross presentation to OT-I Rag1-/-mouse CD8+ T cells in C57Bl/6 JRj mouse ERAP+/+ BMDC assessed as increase in IL-2 secretion from CD8+ T cells at 0.01 to 10 uM preincubated for 90 mins followed by 3 to 18 hrs incubation in presence of ovalbumin by sandwich ELISA method. The class given is functional, cell-based.

Each structure is given as a SMILES string. The source made the active and inactive calls. No cut-off for these calls is given here.

T1 sequence (Q9NZ08 whole entry): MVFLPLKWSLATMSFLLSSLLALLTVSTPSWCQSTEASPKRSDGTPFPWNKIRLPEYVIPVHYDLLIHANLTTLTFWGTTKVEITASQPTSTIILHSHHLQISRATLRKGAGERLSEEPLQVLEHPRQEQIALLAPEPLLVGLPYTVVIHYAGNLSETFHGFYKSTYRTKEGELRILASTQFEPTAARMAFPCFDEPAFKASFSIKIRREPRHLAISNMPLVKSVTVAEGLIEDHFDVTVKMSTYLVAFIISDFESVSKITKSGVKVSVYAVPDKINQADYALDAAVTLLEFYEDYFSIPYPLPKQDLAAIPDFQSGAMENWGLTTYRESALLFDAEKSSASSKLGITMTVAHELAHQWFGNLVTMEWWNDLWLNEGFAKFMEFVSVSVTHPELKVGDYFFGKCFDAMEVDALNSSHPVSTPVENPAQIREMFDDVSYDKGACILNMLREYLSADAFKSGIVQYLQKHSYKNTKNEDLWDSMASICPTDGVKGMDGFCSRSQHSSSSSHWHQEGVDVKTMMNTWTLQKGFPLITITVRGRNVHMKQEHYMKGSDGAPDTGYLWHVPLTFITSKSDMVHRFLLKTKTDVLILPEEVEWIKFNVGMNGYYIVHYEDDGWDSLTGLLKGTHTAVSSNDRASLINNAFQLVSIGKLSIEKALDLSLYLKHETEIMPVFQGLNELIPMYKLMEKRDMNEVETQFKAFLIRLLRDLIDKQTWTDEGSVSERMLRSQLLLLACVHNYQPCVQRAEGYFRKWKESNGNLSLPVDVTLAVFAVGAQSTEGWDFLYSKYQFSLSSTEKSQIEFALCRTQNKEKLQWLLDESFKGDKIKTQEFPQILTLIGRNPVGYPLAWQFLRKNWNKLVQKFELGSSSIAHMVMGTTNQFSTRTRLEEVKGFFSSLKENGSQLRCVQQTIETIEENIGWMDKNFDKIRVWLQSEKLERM

The term IC50 denotes the concentration that gives 50% inhibition. Consider `CC(C)C[C@H](NC(=O)[C@@H](O)[C@H](N)Cc1ccccc1)C(=O)O` [UBENIMEX], for which the IC50 in test [1] fell in the range of 50 to 100 µM.

`O=C(O)c1ccccc1S`: the inhibition entry (in test [2]; with BMDC [3]; with BMDC [4]) was “inactive” throughout.
